Experimental data published in patent publication US9884040B2, “Desethylamiodarone for use in cancer treatment” (PÉCSI TUDOMÁNYEGYETEM, priority 2015, dated 2018).

How the values were obtained:
[1] = tested on: A549 human lung adenocarcinoma epithelial cell line; assay: Radiotherapy plus DEA, colony formation, A549; format: cell-based; conditions: 1Gy or 2Gy single dose alone or with 500 nM-3 μM DEA
Procedure: (§1) Cells were trypsinized and plated in triplicate into 6-well plates at 500 cells/well. Cells were treated with different concentration of DEA and irradiated with a dose of 1.0 and 2.0 Grays. A telecobalt (Therathron 780 C) external irradiation equipment (average photon energy of 1.25 MeV) will be applied for irradiating cells. After 7 days of incubation, cells were washed and stained with Coomassie-blue, and the colonies containing more than 50 cells were counted. The number of colonies were determined and normalized to the number of colonies in controls.
(§2) To examine the effects of a DEA on the effectiveness of radiotherapy the cells were treated with 1Gy or 2Gy single dose irradiation alone or combined with 500 nM-3 μM DEA.
The cells were treated with 1Gy or 2Gy single dose irradiation alone or combined with 500 nM-3 μM DEA. Untreated cells served as controls. The results are mean±SEM of 3 independent experiments performed in at least quadruplicate. p<0.05 compared to the corresponding control group.

[2] = tested on: B16F10 mice melanoma cell line; assay: Colony formation assay, B16F10; format: cell-based; conditions: one week; 1, 1.5, 2, 2.5 or 3 μM
Procedure: (§3) Cells were trypsinized and plated in triplicate into 6-well plates at 500 cells/well. Cells were treated with different concentration of Dea. After 7 days of incubation, cells were washed and stained with Coomassie-blue, and the colonies containing more than 50 cells were counted. The number of colonies were determined and normalized to the number of colonies in controls. To assess the recovery ability of cells that survived treatment, long-term (7 days) colony formation assay was performed. […] B16F10 cells were incubated with the indicated concentrations of desethylamiodarone (1, 1.5, 2, 2.5 or 3 μM for one week and cell colonies were fixed, stained and counted. (A-B) Data are expressed as the mean±SD of ≧3 experiments; a p<0.01 is considered statistically significant. The data shown on FIG. 6 provide evidence that DEA can be useful to treat melanoma.

[3] = tested on: A549 human lung adenocarcinoma epithelial cell line; assay: Colony formation assay, A549; format: cell-based; conditions: one week; 1, 1.5, 2, 2.5 or 3 μM
Procedure: as §3, with “A549” for “B16F10”, “significant.” for “significant. The data shown on FIG. 6 provide evidence that DEA can be useful to treat melanoma.”

[4] = tested on: B16F10 (mice melanoma) cells; assay: MTT cell viability assay, B16F10; format: cell-based; conditions: 24 h and 48 h; 2.5, 5, 7.5 or 10 μM; vs untreated control
Procedure: The cells were seeded into 96-well plates at a starting density of 10^4 cells per well and cultured overnight before DEA was added to the medium for 24 h and 48 h. […] The amount of blue formazan dye formed from MTT+ was proportional to the number of live cells, and was determined with an Anthos Labtech 2010 ELISA reader at 550 nm. All experiments were run in at least 4 replicates and repeated 3 times. The effect of desethylamiodarone was measured in T24 (human urinary bladder carcinoma), A549 (human lung adenocarcinoma epithelial), B16F10 (mice melanoma), HeLa (human cervix adenocarcinoma), 4T1 (mouse mammary carcinoma) cell lines. Cells were treated with increasing concentrations of desethylamiodarone for 24 and 48 h. Cell growth was assessed by measuring metabolic activity, which reflects viability in the MTT-test in the course of 24 h, 48 h of continued exposure to desethylamiorarone. The untreated cells served as negative controls. The viability of the cells, was lower in all DEA-treated than in the control group, with the difference being statistically significant. […] B16F10 cells were incubated with the indicated concentrations (2.5, 5, 7.5 or 10 μM) of desethylamiodarone for 24 h (A) and 48 h (B) and cell viability was measured by MTT assay (filled bars). Untreated cells served as controls. […]

BMI1 = assay: Western blot of BMI1 expression in T24 cells; format: cell-based, human; conditions: T24 cells, 5, 10 and 15 μM, 24 h
Procedure: (§4) 10^6 cells were seeded into regular plates and treated as for the cell viability assay. Cells were harvested at intervals in a chilled lysis buffer containing 0.5 mM sodium-metavanadate, 1 mM ethylenediaminetetraacetic acid (EDTA) and protease inhibitor cocktail in phosphate-buffered saline (PBS). Probes were boiled and subjected to 10% sodium dodecyl sulphate polyacrylamide gel electrophoresis then transferred to nitrocellulose membranes. The membranes were blocked in 5% low fat milk for 1.5 h at room temperature then exposed to primary antibodies at 4° C. overnight in blocking solution. Appropriate horseradish peroxidase-conjugated secondary antibodies were used at a 1:5000 dilution (anti-mouse and anti-rabbit IgGs; Sigma-Aldrich, Steinheim, Germany) and visualized by enhanced chemiluminescence (Amersham Biosciences, Piscataway, N.J., USA). All experiments were repeated 3 times.
T24 cells were exposed to 5, 10 and 15 μM of DEA for 24 h intervals. Equal amounts of lysate protein were subjected to gel electrophoresis. GAPDH was used as loading control. Results are presented as representative immunoblots (top panel) and densitometric analysis of Western blots in bar diagrams (bottom graph). Data are expressed as the mean±1 SD, n=3 and presented as fold difference from control (medium). Significant difference from control: *p<0.05.

[5] = tested on: p42/44 mitogen-activated protein kinase (MAPK) (ERK1/2); assay: Western blot of ERK phosphorylation; format: cell-based, human; conditions: 5-10-15 μM, 6 hours; T24, B16F10 cell lines
Procedure: as §4
To determine the downstream consequences of DEA treatment, we examined the phosphorylation status of AKT (protein kinase B), GSK-3β and p42/44 mitogen-activated protein kinase (MAPK) (ERK1/2) by immunoblotting in T24 (human urinary bladder carcinoma), B16F10 (mice melanoma) cell lines. Cells were cultured in the presence of 5-10-15 μM DEA for 6 hours. The cells were prepared and western blot analysis was carried out to perform both phosphorylated and non-phosphorylated forms of the previously listed proteins. […]

[6] = tested on: mitochondrial permeability transition; conditions: applicants' previous published results; cited from earlier work
[7] = tested on: HeLa human cervix adenocarcinoma cell line; assay: Radiotherapy plus DEA, colony formation, HeLa; format: cell-based; conditions: 1Gy or 2Gy single dose alone or with 500 nM-3 μM DEA
Procedure: as §1, §2
The cells were treated with 1Gy or 2Gy single dose irradiation alone or combined with 500 nM-3 μM DEA. Untreated cells served as controls. The results are mean±SEM of 3 independent experiments performed in at least quadruplicate. p<0.05, compared to the corresponding control group.

CCCCc1oc2ccccc2c1C(=O)c1cc(I)c(OCCNCC)c(I)c1 [DEA, (2-butyl-3-benzofuranyl)[4-[2-(ethylamino)ethoxy]-3,5-diiodophenyl]-methanone]
Radiosensitization, colony formation, A549 [1]: sensitize lung cancer to irradiation | Colony formation, B16F10 [2]: significant decrease in the number and the size of colonies | Colony formation, A549 [3]: significant decrease in the number and the size of colonies | Viability of B16F10 cells (MTT) [4]: Significantly different from control group at p<0.01 | BMI1 expression (BMI1): significantly suppresses BMI1 expression | ERK phosphorylation [5]: a decrease in its phosphorylation | Mitochondrial permeability transition [6]: caused mitochondrial permeability transition | Radiosensitization, colony formation, HeLa [7]: sensitize cervix cancer to irradiation
